Tests used:
[1] = Color analysis of plasticizers made from 2-ethylhexanol with antioxidant (Platinum-Cobalt Scale, ASTM D1209); assay type: physicochemical
Experimental: The oxo alcohol 2-ethylhexanol was mixed with different antioxidants (Anox™ 1315 and Lowinox™ CA22). Plasticizers dioctyl phthalate (DOP) and/or trioctyl trimellitate (TOTM) were then synthesized using the different 2-ethylhexanol mixtures. The DOP plasticizer was produced using a 2-ethylhexanol to phthalic acid molar ratio of 2.35 to 1. The TOTM plasticizer was produced using a 2-ethylhexanol to […] molar ratio of 3.5 to 1. The plasticizers were synthesized a temperature of 210° C. for a period of 4 hours. Phosphorous-based antioxidants, nitrogen-based antioxidants, and sulfur-based antioxidants were all found to be problematic. For example, it was observed during downstream application that when phosphorus-based antioxidants were used, initially poor solubility in the oxo alcohol was a problem and then corrosion of the reactor. Not to be limited by theory, it is believed that during the production of the plasticizers, the phosphorus-based antioxidant would be hydrolyzed, producing phosphorus acid, which corroded the reactor. Nitrogen-based antioxidants and sulfur-based antioxidants, on the other hand, adversely affected the color of the resultant plasticizers.
Color analysis of the resulting plasticizers was conducted using the Platinum-Cobalt Scale in accordance with ASTM D1209, as updated in 2011. The best in class specification for TOTM plasticizer is a score of 30 and for the DOP plasticizer is a score of 25 on the Platinum-Cobalt scale. As is shown in Table 3, trioctyl trimellitate and dioctyl phthalate were produced using 2-ethylhexanol comprising the specified antioxidant.

[2] = Solubility of antioxidants in 2-ethylhexanol; details: 25° C., amount varied from 100 ppm to 1,000 ppm
Experimental: The solubility of different antioxidants in oxo alcohol was analyzed. Alkanox™ 240, Lowinox™ CA22, and Anox™ 1315, were added to 2-ethylhexanol.

[3] = Stability: aldehyde impurity levels in 2-ethylhexanol admixed with antioxidant, heated at 50° C., analysed by GC; assay type: physicochemical; details: 10 ppm in 2-ethylhexanol, heated conditions (50° C.)
Experimental: Experimental trials were conducted in accordance with the present method. The effects of antioxidants on aldehyde impurity levels in 2-ethlyhexanol were analyzed. A fixed volume of 2-ethylhexanol was admixed with an antioxidant and was heated at 50° C. for three weeks in a hot metal block. The 50° C. temperature mimicked harsh weather conditions during which accelerated autoxidation can occur. At the end of each week (intervals of 168 hours), a sample was drawn and analyzed using gas chromatography (GC). A control sample (where antioxidant was not added) was also analyzed. Lowinox™ CA22 was further examined at lower concentrations of 10 ppm and 20 ppm.

[4] = 2-ethylhexanol with 10 ppm antioxidant

Structure (SMILES)	Platinum-Cobalt score of resulting DOP [1, 4]	Platinum-Cobalt score of resulting TOTM [1, 4]	Platinum-Cobalt score of resulting TOTM ([1]; 2-ethylhexanol with 50 ppm antioxidant)	Solubility in 2-ethylhexanol [2]	Time for which aldehyde growth was stopped [3]
Cc1cc(O)c(C(C)(C)C)cc1C(C)CC(c1cc(C(C)(C)C)c(O)cc1C)c1cc(C(C)(C)C)c(O)cc1C (stereo not drawn) [Lowinox™ CA22, 1,1,3-tris(2′-methyl-4′-hydroxy-5′-t-butylphenyl)butane]	20	28	30	soluble	over 3 weeks
CC(C)(C)c1ccc(OP(Oc2ccc(C(C)(C)C)cc2C(C)(C)C)Oc2ccc(C(C)(C)C)cc2C(C)(C)C)c(C(C)(C)C)c1 [Alkanox™ 240, phenol, 2,4-bis(1,1-dimetylethyl)-phosphite (3:1)]				not soluble	
